From patent US8034787B2, “Enzyme-cleavable prodrug compounds” (Medarex, Inc., priority 1998, dated 2011)
Like-named read-outs stand apart in the source and are kept apart here.

Experiments:
[1] = system: HL-60 cells; assay: 3H-thymidine incorporation proliferation assay; assay type: cell-based; details: Homo sapiens, HL-60, 24 hours
Method: Promyelocytic leukemia cells, HL-60, were cultured in RPMI media containing 10% heat inactivated fetal calf serum (FCS). On the day of the study, the cells were collected, washed and resuspended at a concentration of 0.5×10^6 cells/ml in RPMI containing 10% FCS. 100 μl/well of cell suspension was added to 96 well plates. […] Finally, 10 μl of a 100 μCi/ml ^3H-thymidine was added per well and the plates were incubated for 24 hours. The plates were harvested using a 96 well Harvester (Packard Instruments) and counted on a Packard Top Count counter. Four parameter logistic curves were fitted to the ^3H-thymidine incorporation as a function of drug molarity using Prism software to determine IC50 values.

[2] = system: MX-1 tumors; assay type: in vivo, mice
Method: MX-1 tumors which are moderately doxorubicin-sensitive, human breast carcinoma xenografts, were implanted subcutaneously (s.c.) and mice were weighed and tumors were measured (by caliper) at least once a week prior to start of dosing (Day 0), then twice a week during the study. Immediately before the start of dosing (Study Day −2 to Day 0), mice were randomized to various groups based on the weight of the tumors. Mice were euthanized after the tumors reached a cutoff weight of 1.5 g (cancer endpoint). Studies were terminated at Day 60.

[3] = system: LS174T tumor
Source text: Statistically significant from vehicle control group: *: p<0.05; **: p<0.01 (unpaired t-test).

[4] = Aggregation, Centricon ultrafiltration; assay type: physicochemical; details: 17.4 μMol/ml in distilled water, 2 hr at 1500 g; listed as Dox
[5] = Acute toxicity of N-capped prodrugs, intravenous bolus in mice; assay type: in vivo; details: intravenous bolus of 250 mg/kg (Dox-HCl eq.), three to five mice per group
[6] = Single dose Maximum Tolerated Dose (SD-MTD) study
[7] = system: LS174T tumors; assay: LS174T xenograft, five weekly intravenous doses (Example 17)
[8] = 3 mg/kg, 5 doses, one every 7 days

With COc1cccc2c1C(=O)c1c(O)c3c(c(O)c1C2=O)C[C@@](O)(C(=O)CO)C[C@@H]3O[C@H]1C[C@H](N)[C@H](O)[C@H](C)O1 [Doxorubicin] as the compound, how does the IC50 [1] read?
The IC50 was 0.075 µM.

What about the “MDS” value [2, 8] of the same compound?
The value was 27.3 ± 2.6 days.

And the “Survival: MDS Extension over controls” value [2, 8]?
Its value is 33 ± 13%.

What about the “TGD” value [2, 8] of the same compound?
Its value is 6.8 ± 2.7 days.

What about the “Tumor Weight (mg, Day 18)” value [2, 8] of the same compound?
The value was 906 ± 150 mg.

And the TGI ([2]; 3 mg/kg, 5 doses, one every 7 days, over control at Day 18)?
Its TGI is 22 ± 16%.

And the “tolerability of dose regimens” value ([2]; mouse, in vivo)?
The value was “very well tolerated”.

What about the “MDS” value [3, 8] of the same compound?
Its value is 25.8 ± 2.5 days.

What about the “MDS Extension over controls” value [3, 8] of the same compound?
The value was 3 ± 13%.

And the “Mean Tumor Weight (mg, Day 19)” value [3, 8]?
The value was 1035 ± 180 mg.

And the “TGD” value [3, 8]?
Its value is 0.8 ± 3.1 days.

And the TGI [3, 8]?
Its TGI is 0%.

What about the “efficacy in inhibiting LS-174T tumor and extending survival” value ([3]; doxorubicin 3 mg/kg) of the same compound?
Its value is “ineffective”.

What about the “tolerability of dose regimens” value ([3]; mouse, in vivo) of the same compound?
Its value is “very well tolerated”.

What about the “3000 MWCO Filt.” value [4] of the same compound?
The value was 81%.

Which “mice with up to 20% weight loss” value ([2]; 71 mg/kg group, after Day 46) does the source give for COc1cccc2c1C(=O)c1c(O)c3c(c(O)c1C2=O)C[C@@](O)(C(=O)CO)C[C@@H]3O[C@H]1C[C@H](NC(=O)[C@H](CC(C)C)NC(=O)[C@H](C)NC(=O)[C@H](CC(C)C)NC(=O)CCNC(=O)CCC(=O)O)[C@H](O)[C@H](C)O1 [Suc-βAla-Leu-Ala-Leu-Dox, succinyl-β-Ala-Leu-Ala-Leu-Dox] here?
The value was “one out of ten”.

What about the “tolerability of dose regimens” value ([2]; all dose regimens, 5 doses, one every 7 days) of the same compound?
The value was “very well tolerated”.

What about the “tolerability of dose regimens” value ([3]; all dose regimens, Q7D×5) of the same compound?
The value was “very well tolerated”.

What about the “survival up to 8 days” value [5] of the same compound?
The value was “all animals survived”.

What about the “mortality by Day 35” value ([6]; 75 mg/kg dose group) of the same compound?
The value was 40%.

And the “acute toxicity within 24 hours” value ([6]; 50, 75 or 100 mg/kg intravenous bolus)?
Its value is “no acute toxicity”.

And the “body weight loss (of initial weight)” value ([6]; 75 and 100 mg/kg dose groups)?
Its value is greater than 20%.

And the “SD-MTD (mg/kg Dox =)” value ([6]; doxorubicin equivalents)?
The value was 28 mg/kg Dox =.

And the “toxicity profile compared with doxorubicin” value ([6]; preliminary observations)?
The value was “lack of evidence of characteristic GI-toxicity, cardiotoxicity and myleosuppression of doxorubicin”.

What about the “tolerability under repeat-dose levels” value [7] of the same compound?
Its value is “safe and well-tolerated”.
